Data reported in patent US20210002231A1 (Centre National de la Recherche Scientifique, priority 2018, published 2021).
Starred links: 1 amine or outer side, 2 acyl side, 3 side chain; linkers in the order of their positions; H or OH if unused. Non-standard residues stand in square brackets, D forms with d. Residues, ends and D or L forms follow the SMILES beside them. Nva(5-(4-Bn-piperidin-1-yl)) = N[C@@H](CCCN1CCC(Cc2ccccc2)CC1)C(=O)O; X5 = O=C1[C@@H](N[*:1])Cc2ccccc2CN1CCCC(=O)[*:2]; X1 = O=C1[C@@H](N[*:1])Cc2ccccc2CN1CCC(=O)[*:2]; Dmt = Cc1cc(O)cc(C)c1C[C@H](N)C(=O)O; NMeβAla = CN(CCC(=O)[*:2])[*:1]

Legend:
[1] = biological target: human NPFF1R (Homo sapiens, UniProt Q9GZQ6); assay: Radioligand competition binding with [125I]-1-DMe-NPFF; parameters: expressed in transfected cells; HEK293-Glo20F cells (cAMP)
[2] = biological target: NPFF2R (Homo sapiens, UniProt Q9Y5X5); assay: as above; parameters: expressed in transfected cells; HEK293-Glo20F cells (cAMP)
[3] = biological target: T1, human MOPr (Homo sapiens, UniProt P35372); assay: cell-based; type: cell-based; parameters: expressed in transfected cells; HEK293-Glo20F cells (cAMP); conditions: for EC50: Table 3B, read-out: MOPr (cAMP) EC50; for Emax: read-out: MOPr (cAMP) Emax
Experimental: Stimulation by endogenous RF-amide peptides or test compounds for [^35S]-GTPγS binding to membranes from CHO cells expressing human NPFF1R or NPFF2R, were examined as reported. 1.6. Glo-Sensor cAMP Assay cAMP accumulation assay was essentially done as described with the following modifications: HEK293 cells stably expressing cAMP Glosensor-20F were used, with or without additional stable expression of each individual opioid receptor or NPFF1R. The cAMP responses were measured in presence of D-luciferin (1 mM).

[4] = biological target: T1, human MOPr; assay: BRET1 β-arrestin-2 recruitment assay; type: cell-based; parameters: expressed in transfected cells; host or cells: HEK293 cells stably expressing eYFP-β-arrestin-2, transiently transfected with the Rluc8-MOP plasmid; conditions: for EC50: Table 3B, — = non-detectable recruitment, read-out: MOPr (β-arrestin-2) EC50; for Emax: read-out: MOPr (β-arrestin-2) Emax;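 as to Emax: Emax relative to maximal DAMGO-induced BRET as 100%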;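 as to MOPr (β-arrestin-2) Emax: Emax relative to maximal DAMGO-induced BRET as 100%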
Experimental: Peak response amplitudes were normalized to basal and maximal (cells permeabilized with 20 μM digitonin) fluorescence levels. 1.8. β-Arrestin-2 recruitment assay The β-arrestin-2 recruitment assay was performed as described [34; 45] with minor modifications. Briefly, two days prior the experiment, HEK293 cells stably expressing eYFP-tagged β-arrestin-2 were transfected with the plasmid encoding Rluc8-MOP receptor. β-Arrestin-2 recruitment was measured at 37° C. in presence of 5 μM Coelenterazine H, 5 min after agonist addition.
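For MOPr (cAMP) Emax in this document: Emax relative to DAMGO as 100%.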

T1 sequence (P35372 whole entry): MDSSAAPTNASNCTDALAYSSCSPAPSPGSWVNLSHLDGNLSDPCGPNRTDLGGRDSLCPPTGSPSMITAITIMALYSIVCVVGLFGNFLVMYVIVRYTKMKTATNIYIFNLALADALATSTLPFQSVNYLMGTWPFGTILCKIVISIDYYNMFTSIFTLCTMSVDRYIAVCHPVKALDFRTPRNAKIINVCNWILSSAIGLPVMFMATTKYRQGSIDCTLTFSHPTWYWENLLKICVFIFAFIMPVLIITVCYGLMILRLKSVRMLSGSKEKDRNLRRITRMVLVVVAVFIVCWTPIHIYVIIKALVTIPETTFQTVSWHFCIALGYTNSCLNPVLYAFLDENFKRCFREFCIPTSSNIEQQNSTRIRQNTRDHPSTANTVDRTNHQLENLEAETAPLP
Sequence of human NPFF1R (Q9GZQ6 whole entry): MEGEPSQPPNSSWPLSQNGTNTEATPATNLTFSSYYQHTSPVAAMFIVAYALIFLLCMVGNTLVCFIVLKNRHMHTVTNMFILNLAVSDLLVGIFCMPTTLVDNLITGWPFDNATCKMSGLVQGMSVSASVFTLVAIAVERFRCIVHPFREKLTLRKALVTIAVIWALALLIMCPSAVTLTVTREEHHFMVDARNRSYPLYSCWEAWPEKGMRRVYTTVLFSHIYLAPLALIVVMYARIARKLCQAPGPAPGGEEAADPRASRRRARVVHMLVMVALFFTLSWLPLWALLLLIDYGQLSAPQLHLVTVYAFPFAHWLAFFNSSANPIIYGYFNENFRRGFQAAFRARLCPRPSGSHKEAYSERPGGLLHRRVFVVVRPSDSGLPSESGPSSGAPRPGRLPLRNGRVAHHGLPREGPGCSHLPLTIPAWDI
Sequence of NPFF2R (Q9Y5X5 whole entry): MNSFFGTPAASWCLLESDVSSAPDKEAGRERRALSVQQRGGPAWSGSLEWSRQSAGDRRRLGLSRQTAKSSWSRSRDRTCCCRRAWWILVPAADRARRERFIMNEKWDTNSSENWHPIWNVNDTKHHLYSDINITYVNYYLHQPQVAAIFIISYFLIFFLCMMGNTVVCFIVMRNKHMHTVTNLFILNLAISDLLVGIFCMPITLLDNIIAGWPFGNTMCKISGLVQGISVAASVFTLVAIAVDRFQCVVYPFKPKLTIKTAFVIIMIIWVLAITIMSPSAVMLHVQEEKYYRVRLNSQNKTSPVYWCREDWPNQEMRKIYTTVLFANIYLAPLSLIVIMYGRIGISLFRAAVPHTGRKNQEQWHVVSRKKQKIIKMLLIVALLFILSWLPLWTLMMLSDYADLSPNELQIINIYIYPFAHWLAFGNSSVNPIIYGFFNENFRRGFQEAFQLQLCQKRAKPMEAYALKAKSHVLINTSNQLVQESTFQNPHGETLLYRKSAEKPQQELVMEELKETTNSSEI

Structure (SMILES) | IC50 [1] | IC50 [2] | EC50 [3] | Emax [3] | EC50 [4] | Emax [4]
Cc1cc(O)cc(C)c1C[C@H](N)C(=O)N[C@H](CCCNC(=N)N)C(=O)N[C@H]1Cc2c(ccc3ccccc23)CN(CC(=O)N[C@@H](CCCN2CCC(Cc3ccccc3)CC2)C(=O)N[C@H](C(N)=O)C(C)C)C1=O [DP0021, H-Dmt-D-Arg-1AnaGly-Bpa-Val-NH2] | 40 to 400 nM | < 40 nM | 2.8 ± 0.4 nM | 102 ± 3% | 109 ± 57 nM | 22%
Cc1cc(O)cc(C)c1C[C@H](N)C(=O)N[C@H](CCCNC(=N)N)C(=O)N[C@H]1Cc2ccccc2CN(CCCC(=O)N[C@@H](CCCN2CCC(Cc3ccccc3)CC2)C(=O)N[C@@H](Cc2ccccc2)C(N)=O)C1=O [DP0018, H-Dmt-D-Arg-AbaGABA-Bpa-Phe-NH2] (H-[Dmt][dR][X5][Nva(5-(4-Bn-piperidin-1-yl))]F-NH2) | 40 to 400 nM | < 40 nM | 5.5 nM | 108% | 95.8 nM | 31%
Cc1cc(O)cc(C)c1C[C@H](N)C(=O)N[C@H](CCCNC(=N)N)C(=O)N[C@@H](Cc1ccccc1)C(=O)NCCC(=O)N[C@@H](CCCN1CCC(Cc2ccccc2)CC1)C(=O)N[C@@H](Cc1ccccc1)C(N)=O [DP0019, H-Dmt-D-Arg-Phe-β-Ala-Bpa-Phe-NH2] (HELM PEPTIDE1{[Cc1cc(O)cc(C)c1C[C@H](N)C(=O)[*:2]].[dR].F.[bAla].[O=C([C@H](CCCN1CCC(Cc2ccccc2)CC1)N[*:1])[*:2]].F.[am]}$$$$V2.0) | 40 to 400 nM | 40 to 400 nM | 4 ± 0.4 nM | 101 ± 1% | 162 nM | 53%
Cc1cc(O)cc(C)c1C[C@H](N)C(=O)N[C@H](CCCNC(=N)N)C(=O)N[C@H]1Cc2c(ccc3ccccc23)CN(CC(=O)N[C@@H](CCCN2CCC(Cc3ccccc3)CC2)C(=O)N[C@@H](Cc2ccccc2)C(N)=O)C1=O [DP0012, H-Dmt-D-Arg-1AnaGly-Bpa-Phe-NH2] | < 40 nM | < 40 nM | 15.1 ± 0.4 nM | 90 ± 2% | 650 nM | 22%
Cc1cc(O)cc(C)c1C[C@H](N)C(=O)N[C@H](CCCNC(=N)N)C(=O)N[C@H]1Cc2ccccc2CN(CCCC(=O)N[C@@H](CCCN2CCC(Cc3ccccc3)CC2)C(=O)N[C@@H](Cc2c[nH]c3ccccc23)C(N)=O)C1=O [DP0022, H-Dmt-D-Arg-AbaGABA-Bpa-Trp-NH2] (H-[Dmt][dR][X5][Nva(5-(4-Bn-piperidin-1-yl))]W-NH2) | ~40 nM | < 40 nM | 5 nM | 90% | 617 ± 205 nM | 30 ± 0.7%
Cc1cc(O)cc(C)c1C[C@H](N)C(=O)N[C@H](CCCNC(=N)N)C(=O)N[C@H]1Cc2ccccc2CN(CCC(=O)N[C@@H](CCCN2CCC(Cc3ccccc3)CC2)C(=O)N[C@@H](Cc2c[nH]c3ccccc23)C(N)=O)C1=O [DP0005, H-Dmt-D-Arg-Aba-β-Ala-Bpa-Trp-NH2] (H-[Dmt][dR][X1][Nva(5-(4-Bn-piperidin-1-yl))]W-NH2) | ~50 nM | < 50 nM | 7.9 ± 0.5 nM | 81 ± 0.6% | 98 nM | 42%
Cc1cc(O)cc(C)c1C[C@H](N)C(=O)N[C@H](CCCNC(=N)N)C(=O)N[C@@H](Cc1ccccc1)C(=O)N(C)CCC(=O)N[C@@H](CCCN1CCC(Cc2ccccc2)CC1)C(=O)N[C@@H](Cc1ccccc1)C(N)=O [DP0013, H-Dmt-D-Arg-Phe-N(Me)-β-Ala-Bpa-Phe-NH2] (H-[Dmt][dR]F[NMeβAla][Nva(5-(4-Bn-piperidin-1-yl))]F-NH2) | < 40 nM | ~40 nM | 0.53 ± 0.004 nM | 115 ± 4% | 20.5 nM | 101%
Cc1cc(O)cc(C)c1C[C@H](N)C(=O)N[C@H](CCCNC(=N)N)C(=O)N[C@H]1Cc2ccccc2CN(CCCC(=O)N[C@@H](CCCN2CCC(Cc3ccccc3)CC2)C(=O)N[C@H](C(N)=O)C(C)C)C1=O [DP0020, H-Dmt-D-Arg-AbaGABA-Bpa-Val-NH2] (H-[Dmt][dR][X5][Nva(5-(4-Bn-piperidin-1-yl))]V-NH2) | 40 to 400 nM | 40 to 400 nM | 6.3 nM | 101% | 149 nM | 53%
